Ki data for 19 molecules are collected here from patent US6127340A, “Serine protease inhibitors” (Trigen Limited, priority 1995, dated 2000).

Assay [1] concerns the target human α-thrombin (Homo sapiens, UniProt P00734). Briefly: Determination of Ki: inhibition of human α-thrombin catalysed hydrolysis of chromogenic substrate S-2238. The class given is biochemical. As to the method:
The inhibition of human α-thrombin was determined by the inhibition of the enzyme catalysed hydrolysis of three different concentrations of the chromogenic substrate S-2238.
200 μl of sample or buffer and 50 μl of S-2238 were incubated at 37° C. for 1 min and 50 μl of human α-thrombin (0.25 NIH μ/ml) was added. The initial rate of inhibited and uninhibited reactions were recorded at […]. The increase in optical density was plotted according to the method of Lineweaver and Burke. The Km and apparent Km were determined and Ki was calculated using the relationship. [formula]
The buffer used contained 0.1M sodium phosphate, 0.2M NaCl, 0.5% PEG and 0.02% sodium azide, adjusted to pH 7.5 with orthophosphoric acid.
The samples consist of the compound dissolved in DMSO.
The reader is referred to Dixon, M and Webb, E. C., "Enzymes", third edition, 1979, Academic Press, the disclosure of which is incorporated herein by reference, for a further description of the measurement of Ki.

Assay [2] deals with elastase. Briefly: Inhibition constant (Ki) against elastase. The class given is biochemical.
Setting [3] is: Table 4, 37° C., substrate S-2238.
Where [4] appears, read: Table 5, Ki against elastase, 37° C., read-out: Ela.
Setting [5] is: Table 6, comparative with prior art compounds, unit inferred.
The mark [6] stands for this setting: Table 6, comparative with prior art compounds, unit inferred, read-out: Ki(elastase).

Read-outs that look alike come from different tables or passages of the source. Some results are limits rather than exact numbers.

`CC(C)C(OC(=O)C1CCCN1C(=O)C(NC(=O)OCc1ccccc1)C(c1ccccc1)c1ccccc1)B1OC2CC3CC(C3(C)C)C2(C)O1` [Example 87, Benzyloxycarbonyl-D,L-diphenylalanylprolyl-.psi.(CO2)-borovaline pinanediol ester]: the Ki in assay [1] (setting [3]) amounted to 18200 nM; in assay [2] (setting [4]), 55000 nM.

On to “Cbz-D-Phe-Pro-.psi.(CO2)-BoroPhe-OPin [Example 88]”, for which the Ki in assay [1] (setting [3]) came out at 129 nM.

Take “Z-D-Dpa-Pro-(CH2 O)-L-BoroMpg-OPin [Example 173]”: the Ki in assay [1] (setting [3]) came to 2390 nM.

`CCOP(=O)(OCC)C(OC(=O)C1CCCN1C(=O)C(NC(=O)OCc1ccccc1)C(c1ccccc1)c1ccccc1)c1ccc([N+](=O)[O-])cc1` (racemic) [Example 239, Cbz-DL-Dpa-Pro-CO2 pNO2Phg^P (OEt)2] returned a Ki in assay [1] (setting [3]) of 6200 nM.

Consider `CCC(OC(=O)C1CCCN1C(=O)C(NC(=O)OCc1ccccc1)C(c1ccccc1)c1ccccc1)B1OC2CC3CC(C3(C)C)C2(C)O1` [Example 90, Cbz-D,L-Dpa-Pro-.psi.(CO2)-1-propyl-1-boronate pinanediol], for which the Ki in assay [1] (setting [3]) turned out to be 247 nM; in assay [2] (setting [4]), 4500 nM.

`CC1(C)C2CC3OB(C(OC(=O)C4CCCN4C(=O)[C@@H](Cc4ccccc4)NC(=O)OCc4ccccc4)c4ccccc4)OC3(C)C1C2` (stereo partly drawn) [Example 100, Cbz-D-Phe-Pro-.psi.(CO2)-boroPgl pinanediol]: the Ki in assay [1] (setting [3]) is 88 nM.

As to “Cbz-D-Dpa-Pro-.psi.(CO2)-GlyP(-)OPin [Example 177]”, the Ki in assay [1] (setting [3]) was determined as 13700 nM.

“Cbz-D-Dpa-Pro-.psi.(COCH2)BoroHpg(-)OPin [Example 270]” displayed a Ki in assay [1] (setting [3]) of 292 nM.

In the case of “Z-D-Phe-ProBoroEtgOPin [reference compound]”, the Ki in assay [1] (setting [5]) amounted to 1000 nM; in assay [2] (setting [6]) it was 561 nM.

`CC1(C)C2CC3OB(C(Cc4ccccc4)OC(=O)C4CCCN4C(=O)[C@H](NC(=O)OCc4ccccc4)C(c4ccccc4)c4ccccc4)OC3(C)C1C2` (stereo partly drawn) [Example 91, Cbz-D-Dpa-Pro-.psi.(CO2)-boroPhe pinanediol] gave a Ki in assay [1] (setting [3]) of 39.2 nM.

Regarding “Cbz-D-Phe-Pro-.psi.(CO2)-boroethylglycine pinanediol [Example 85]”, the Ki in assay [1] (setting [3]) was found to be 269 nM; in assay [2] (setting [4]) it was 87 nM.

“Z-D,L-Dpa-(CO2)BoroMpgOPin [Example 109]”: the Ki in assay [1] (setting [3]) turned out to be 435 nM.

In assay [1] (setting [3]), “Cbz-D,L-Dpa-Pro-(CO2)boroPhe-OPin [Example 89]” returned a Ki of 39 nM.

For the molecule “Cbz-D-Phe-Pro-.psi.(CH2 O)-BoroPhe-OPin [Example 102]”, the Ki in assay [1] (setting [3]) turned out to be 148 nM.

As for `CC1(C)C2CC3OB(C(OC(=O)C4CCCN4C(=O)C(NC(=O)OCc4ccccc4)C(c4ccccc4)c4ccccc4)c4ccccc4)OC3(C)C1C2` [Example 101, Cbz-D,L-Dpa-Pro-.psi.(CO2)-BoroPgl pinanediol], in assay [1] (setting [3]), the Ki came out at 131 nM.

“Z-D-Dpa-Pro(CO2)-L-BoroMpgOPin [Example 116]” showed a Ki in assay [1] (setting [3]) of 283 nM.

In assay [1] (setting [5]), “Z-D,L-Dpa-Pro-BoroPhe-OPin [reference compound]” returned a Ki of 82 nM.

Regarding `CCOP(=O)(OCC)C(OC(=O)[C@@H]1CCCN1C(=O)C(NC(=O)OCc1ccccc1)C(c1ccccc1)c1ccccc1)c1ccccc1` (mixture of isomers) [Example 264, Cbz-DL-Dpa-Pro.psi.(CO2)Phg^P (OEt)2], in assay [1] (setting [3]), the Ki is 16000 nM.

As to `CC(C)C(NC(=O)C1CCCN1C(=O)C(NC(=O)OCc1ccccc1)C(c1ccccc1)c1ccccc1)B1OC(C)(C)C(C)(C)O1` [Z-D-Dpa-Pro-BoroVal-OPin, reference compound], the Ki in assay [2] (setting [6]) is above 70800 nM.
